Experiment in all cases: inhibition of tumour cell growth, NCI panel, 48 h
In assay [1] the test system is MOLT-4 leukemia.
For assay [2], the system named is HCT-15 colon.
The test system of assay [3] is OVCAR-3 ovarian.
Assay [4] has as its system DMS 114 small cell lung.
The test system of assay [5] is SNB-19 CNS.
For assay [6], the system named is HCC-2998 colon.
In assay [7] the test system is DLD-1 colon.
Assay [8] has as its system SNB-78 CNS.
Assay [9] deals with MDA-MB-231 breast.
Assay [10] concerns BT-549 breast.

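Dose response: 5 concentrations. Exposure: 48 h. Format: 96-well plates. Endpoint: linear interpolation; highest concentration if not reached. GI50 is the concentration that inhibits growth by half. TGI marks complete inhibition of growth.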 A value given as a limit tells only on which side of the number the result lay.

`CCOC(=O)NN1C(=O)C(=P(c2ccccc2)(c2ccccc2)c2ccccc2)C(C(=O)OC)=C1C`: the TGI in assay [1], in assay [2], in assay [3], in [4], in assay [5] and in assay [6] was over 100 µM each time. Moreover, the TGI in assay [7] and in [8] was over 100 µM each time.
For `Cc1nc(Nc2ccc(Cl)cc2)sc1C(=O)Nc1cccc2c(=O)[nH][nH]c(=O)c12`, the TGI was 50.4 µM in [1]; 71.3 µM in assay [2]; 40.4 µM in assay [3]; 61.9 µM in [4]; over 100 µM in assay [5]; over 100 µM in assay [6]. Besides, the TGI in [7] is 86.4 µM; in assay [8], over 100 µM.
For `COc1ccccc1/C=C(\NC(=O)c1ccccc1)c1nc2ccccc2[nH]1`, the TGI in assay [1], in assay [2], in [3], in assay [4], in assay [5] and in assay [7] was over 100 µM in each case. The molecule also had a TGI in assay [8] of over 100 µM.
On to `O=C(NCCCN1CCN(CCCNC(=O)Nc2cc(Cl)ccc2Cl)CC1)Nc1cc(Cl)ccc1Cl`, for which the TGI in assay [1], in [2], in [3], in [4], in [5] and in assay [7] was over 100 µM in each case. The same molecule had a TGI in assay [8] of over 100 µM.
For the molecule `Cc1cc(O)c2c(c1)OC1(C)CCC3C(C)(C)CCCC34COC2C14` (stereo unspecified), the TGI stood at 27.4 µM in assay [1]; 26.8 µM in assay [3]; 27.1 µM in [4]; 32.7 µM in [5]; 28.1 µM in assay [6]; 36.8 µM in assay [7].
Regarding `COC(=O)CCC(NC(=S)N/N=C(\C)c1cccs1)C(=O)OC` (stereo unspecified), the TGI in [2], in assay [3], in assay [4], in assay [5], in assay [6] and in [7] was over 100 µM each time. Also, the TGI in assay [8] is over 100 µM.
In the case of `Nc1ccccc1SC(/C=C/NNC1=NC(c2ccccc2)C(c2ccccc2)=NN1)c1ccccc1` (stereo unspecified), the TGI is 15.7 µM in assay [1]; 32 µM in [2]; 26.1 µM in [3]; 30.1 µM in assay [4]; 43.8 µM in assay [5]; 30.5 µM in [6]. In addition, the TGI amounted to 31.8 µM in assay [7] and 44.3 µM in assay [8].
For `Cc1cccc(C=NC23CC4CC(CC(C4)C2)C3)c1`, the TGI in assay [1], in [2], in assay [3], in [4], in assay [5] and in assay [6] was over 100 µM throughout. In addition, the TGI in [7] and in assay [8] was over 100 µM throughout.
Regarding `CCNC(=O)COc1ccc(Cl)c(C)c1`, the TGI in assay [1], in assay [2], in [3], in [4], in assay [5] and in assay [6] was over 100 µM each time. The TGI in assay [7] and in assay [8] was over 100 µM throughout.
As to `N.N.N.N.O=S([O-])[O-].[Co+3].[N-]=[N+]=[N-]`, the GI50 in assay [1], in assay [2], in [3], in assay [5], in assay [6] and in assay [7] was over 100 µM in each case. Moreover, the GI50 in assay [8] was over 100 µM. Moreover, the TGI in assay [1], in [2], in [3], in [5], in assay [6] and in assay [7] was over 100 µM in each case. Besides, the TGI in assay [8] was over 100 µM.
Regarding `C/C(=N/NC(N)=S)C(CN1CCOCC1)C(C1=C(O)c2ccccc2OC1)c1ccccc1` (stereo unspecified), the TGI in assay [1], in assay [3], in [5], in assay [6], in assay [7] and in assay [8] was over 100 µM in each case.
Take `NCCOCCOCC(=O)O`: the TGI in assay [1], in assay [2], in [3], in [4], in [5] and in assay [6] was over 100 µM each time. Also, the TGI in [8] is over 100 µM.
For `O=C1C=C(NCCc2ccccc2)c2ccccc2C1=O`, the TGI in assay [1] was 64.8 µM; in assay [2], 3.6 µM; in assay [3], 5.59 µM; in assay [4], 5.81 µM; in [9], 42.8 µM; in assay [10] it was 3.77 µM. Further, the TGI in [5] is 9.29 µM; in [6], 4.09 µM; in assay [7], 21.9 µM; in assay [8], 42.8 µM.
Take `BrCc1ccc2ccc3ccc(CBr)nc3c2n1`: the TGI stood at 4.66 µM in [1]; 4.18 µM in assay [2]; 3.43 µM in assay [3]; 15.4 µM in assay [4]; 6.86 µM in assay [9]; 19.5 µM in assay [5]. Further, the TGI in [6] amounted to 8.73 µM; in assay [8] it was 4.43 µM.
In the case of `Cn1cnnc1Sc1c([N+](=O)[O-])nc(-c2ccc([N+](=O)[O-])cc2)n1C`, the TGI in [1] is 31.8 µM; in assay [3], 30.8 µM; in [4], 32.4 µM; in [5], over 100 µM; in assay [6], 31.8 µM; in assay [7], 29.3 µM. Further, the TGI in assay [8] is 35.6 µM.
With `COC(OC)c1cccnc1C`, the TGI in [1], in [2], in assay [3], in assay [4], in assay [5] and in assay [7] was over 100 µM throughout. In addition, in assay [8], the TGI was over 100 µM.

The values above are taken from PubChem BioAssay (NCI).
